Test results taken from the CheMixHub ionic liquid set.

Assay: xn = mol fraction of the nth substance listed

CC(O)C(=O)[O-].C[N+](C)(C)CCO + CCO
101 kPa
Conditions	viscosity [mPa·s]
293.15 K, x2 = 0.2996	225.4
293.15 K, x2 = 0.7013	17.75
293.15 K, x2 = 0.7987	8.579
298.15 K, x2 = 0.7987	7.357
303.15 K, x2 = 0.601	25.96
303.15 K, x2 = 0.8996	2.853
308.15 K, x2 = 0.2011	144.8
318.15 K, x2 = 0	158.7
318.15 K, x2 = 0.601	15.05
323.15 K, x2 = 0.1039	91.6
323.15 K, x2 = 0.5003	20.51
323.15 K, x2 = 0.7987	3.792
328.15 K, x2 = 0.1039	72.67
328.15 K, x2 = 0.601	11.1
328.15 K, x2 = 0.7987	3.387
333.15 K, x2 = 0.1039	58.6
333.15 K, x2 = 0.601	9.667
338.15 K, x2 = 0.3999	19.08

CCCC[n+]1ccn(C)c1.[I-] + CCO
298.15 K, 100 kPa
Conditions	electrical conductivity [S/m]
x1 = 0.009029	0.254
x1 = 0.1006	1.47
x1 = 0.2076	1.74

CC[n+]1ccn(C)c1.COP(=O)([O-])OC + CCO
Conditions	viscosity [mPa·s]
293.15 K, 100 kPa, x1 = 0.7006	121.4
298.15 K, 100 kPa, x1 = 0.5013	37.58
298.15 K, 100 kPa, x1 = 0.7006	95.5
298.15 K, 100 kPa, x1 = 0.8011	141.3
298.15 K, 101 kPa, x2 = 0.398	68.8
298.15 K, 101 kPa, x2 = 0.598	23.29
303.15 K, 100 kPa, x1 = 0.3007	10.67
303.15 K, 100 kPa, x1 = 0.5994	48.5
303.15 K, 101 kPa, x2 = 0.398	55.24
308.15 K, 100 kPa, x1 = 1	134.2
308.15 K, 101 kPa, x2 = 0.798	4.904
313.15 K, 100 kPa, x1 = 0.3007	8.34
313.15 K, 100 kPa, x1 = 0.5994	31.82
313.15 K, 100 kPa, x1 = 1	102.6
318.15 K, 100 kPa, x1 = 0.3007	7.45
318.15 K, 101 kPa, x2 = 0.398	31.25
318.15 K, 101 kPa, x2 = 0.598	12.92
323.15 K, 100 kPa, x1 = 0.5013	15.7
323.15 K, 100 kPa, x1 = 0.8011	38.59
328.15 K, 100 kPa, x1 = 0.7006	25.53
328.15 K, 101 kPa, x2 = 0.199	38.21
333.15 K, 100 kPa, x1 = 0.1004	1.71
333.15 K, 100 kPa, x1 = 0.7006	21.5
333.15 K, 100 kPa, x1 = 1	41.05
338.15 K, 100 kPa, x1 = 0.8988	26.44

CC[n+]1ccn(C)c1.O=S(=O)([N-]S(=O)(=O)C(F)(F)F)C(F)(F)F + CCOC(C)=O
100 kPa
Conditions	viscosity [mPa·s]
303.15 K, x2 = 0.2977	12.85
303.15 K, x2 = 0.3962	9.43
303.15 K, x2 = 0.5961	4.75
303.15 K, x2 = 0.7974	1.97
303.15 K, x2 = 0.8979	0.88
308.15 K, x2 = 0	23.29
308.15 K, x2 = 0.2977	11.24
313.15 K, x2 = 0.3962	7.36
313.15 K, x2 = 0.5051	5.15
318.15 K, x2 = 0.1858	11.49
318.15 K, x2 = 0.3962	6.49
318.15 K, x2 = 0.5051	4.36
318.15 K, x2 = 0.8979	0.73
323.15 K, x2 = 0.6909	2.05

CC[n+]1ccn(C)c1.O=S(=O)([N-]S(=O)(=O)C(F)(F)F)C(F)(F)F + CCOS(=O)(=O)[O-].CC[n+]1ccn(C)c1
298.15 K, 100 kPa
Conditions	viscosity [mPa·s]
x1 = 0.1042	95.6
x1 = 0.2975	84.1

CC[n+]1ccccc1.[Cl-] + CC[n+]1ccccc1.[Br-]
101 kPa
Conditions	viscosity [mPa·s]
418.1 K, x1 = 0.196	9.57
418.1 K, x1 = 0.613	9.2
423.1 K, x1 = 0.196	8.73
423.1 K, x1 = 0.303	8.64
423.1 K, x1 = 0.613	8.37
423.1 K, x1 = 0.885	8.17
428.1 K, x1 = 0.303	7.88
428.1 K, x1 = 0.688	7.61
433.1 K, x1 = 0.503	7.14
438.1 K, x1 = 0.613	6.53

CC[n+]1ccn(C)c1.O=S(=O)([N-]S(=O)(=O)C(F)(F)F)C(F)(F)F + CC[n+]1ccn(C)c1.F[B-](F)(F)F
100 kPa
Conditions	electrical conductivity [S/m]	viscosity [mPa·s]
243.15 K, x1 = 0.2	0.039	–
243.15 K, x1 = 0.3	0.043	–
243.15 K, x1 = 0.4	0.033	–
243.15 K, x1 = 0.5	0.038	–
243.15 K, x1 = 0.6	0.023	–
243.15 K, x1 = 0.7	0.046	–
243.15 K, x1 = 0.8	0.028	–
243.15 K, x1 = 1	0.011	–
248.15 K, x1 = 0.2	0.062	–
248.15 K, x1 = 0.3	0.068	–
248.15 K, x1 = 0.4	0.053	–
248.15 K, x1 = 0.5	0.06	–
248.15 K, x1 = 0.6	0.039	–
248.15 K, x1 = 0.7	0.072	–
248.15 K, x1 = 0.8	0.045	–
248.15 K, x1 = 1	0.019	–
253.15 K, x1 = 0.2	0.094	478
253.15 K, x1 = 0.3	0.102	485
253.15 K, x1 = 0.4	0.081	468
253.15 K, x1 = 0.5	0.09	460
253.15 K, x1 = 0.6	0.061	–
253.15 K, x1 = 0.7	0.107	435
253.15 K, x1 = 0.8	0.069	403
253.15 K, x1 = 1	0.031	350
258.15 K, x1 = 0.2	0.136	–
258.15 K, x1 = 0.3	0.146	–
258.15 K, x1 = 0.4	0.118	–
258.15 K, x1 = 0.5	0.13	–
258.15 K, x1 = 0.6	0.091	–
258.15 K, x1 = 0.7	0.152	–
258.15 K, x1 = 0.8	0.099	–
258.15 K, x1 = 1	0.047	–
263.15 K, x1 = 0.2	0.19	226
263.15 K, x1 = 0.3	0.202	229
263.15 K, x1 = 0.4	0.166	222
263.15 K, x1 = 0.5	0.18	220
263.15 K, x1 = 0.6	0.131	–
263.15 K, x1 = 0.7	0.208	208
263.15 K, x1 = 0.8	0.138	193
263.15 K, x1 = 1	0.07	173
268.15 K, x1 = 0.2	0.255	–
268.15 K, x1 = 0.3	0.27	–
268.15 K, x1 = 0.4	0.226	–
268.15 K, x1 = 0.5	0.242	–
268.15 K, x1 = 0.6	0.18	–
268.15 K, x1 = 0.7	0.276	–
268.15 K, x1 = 0.8	0.186	–
268.15 K, x1 = 1	0.099	–
273.15 K, x1 = 0.2	0.334	122
273.15 K, x1 = 0.3	0.351	124
273.15 K, x1 = 0.4	0.298	120
273.15 K, x1 = 0.5	0.316	120
273.15 K, x1 = 0.6	0.241	–
273.15 K, x1 = 0.7	0.357	114
273.15 K, x1 = 0.8	0.243	105
273.15 K, x1 = 1	0.135	96.5
278.15 K, x1 = 0.2	0.427	–
278.15 K, x1 = 0.3	0.445	–
278.15 K, x1 = 0.4	0.383	–
278.15 K, x1 = 0.5	0.403	–
278.15 K, x1 = 0.6	0.314	–
278.15 K, x1 = 0.7	0.452	–
278.15 K, x1 = 0.8	0.31	–
278.15 K, x1 = 1	0.179	–
283.15 K, x1 = 0.2	0.533	72.6
283.15 K, x1 = 0.3	0.553	74
283.15 K, x1 = 0.4	0.481	72.4
283.15 K, x1 = 0.5	0.503	72.1
283.15 K, x1 = 0.6	0.4	–
283.15 K, x1 = 0.7	0.559	69.1
283.15 K, x1 = 0.8	0.388	63.8
283.15 K, x1 = 1	0.232	59.3
288.15 K, x1 = 0.2	0.654	–
288.15 K, x1 = 0.3	0.674	–
288.15 K, x1 = 0.4	0.594	–
288.15 K, x1 = 0.5	0.617	–
288.15 K, x1 = 0.6	0.499	–
288.15 K, x1 = 0.7	0.68	–
288.15 K, x1 = 0.8	0.475	–
288.15 K, x1 = 1	0.294	–
293.15 K, x1 = 0.2	0.79	46.7
293.15 K, x1 = 0.3	0.81	47.9
293.15 K, x1 = 0.4	0.721	47
293.15 K, x1 = 0.5	0.744	47
293.15 K, x1 = 0.6	0.612	–
293.15 K, x1 = 0.7	0.815	45.3
293.15 K, x1 = 0.8	0.574	41.7
293.15 K, x1 = 1	0.365	39.2
298.15 K, x1 = 0.2	0.939	–
298.15 K, x1 = 0.3	0.958	–
298.15 K, x1 = 0.4	0.862	–
298.15 K, x1 = 0.5	0.885	–
298.15 K, x1 = 0.6	0.738	–
298.15 K, x1 = 0.7	0.963	–
298.15 K, x1 = 0.8	0.682	–
298.15 K, x1 = 1	0.447	–
303.15 K, x1 = 0.2	–	32
303.15 K, x1 = 0.3	–	33
303.15 K, x1 = 0.4	–	32.5
303.15 K, x1 = 0.5	–	32.5
303.15 K, x1 = 0.7	–	31.5
303.15 K, x1 = 0.8	–	29
303.15 K, x1 = 1	–	27.4
313.15 K, x1 = 0.2	–	23
313.15 K, x1 = 0.3	–	23.9
313.15 K, x1 = 0.4	–	23.6
313.15 K, x1 = 0.5	–	23.6
313.15 K, x1 = 0.7	–	23
313.15 K, x1 = 0.8	–	21.1
313.15 K, x1 = 1	–	20.1
323.15 K, x1 = 0.2	–	17.3
323.15 K, x1 = 0.3	–	18
323.15 K, x1 = 0.4	–	17.8
323.15 K, x1 = 0.5	–	17.8
323.15 K, x1 = 0.7	–	17.5
323.15 K, x1 = 0.8	–	16
323.15 K, x1 = 1	–	15.3
333.15 K, x1 = 0.2	–	13.4
333.15 K, x1 = 0.3	–	14.1
333.15 K, x1 = 0.4	–	13.9
333.15 K, x1 = 0.5	–	13.9
333.15 K, x1 = 0.7	–	13.8
333.15 K, x1 = 0.8	–	12.6
333.15 K, x1 = 1	–	12.1
